# Experimental data as given in publication PMC10314922, “Fluorescence lifetime FRET assay for live-cell high-throughput screening of the cardiac SERCA pump yields multiple classes of small-molecule allosteric modulators” (Scientific Reports, 2023).
# Several values for one entry are separate records, joined by “and”; a condition that tells them apart may be missing. Identical values can stand only once. Entries after “also recorded” stand apart in the source; their conditions may differ.
# What was measured:
# [1] = target: T1, SERCA2a (Sus scrofa, UniProt P11607); test: Oxalate-supported Fluo-4 Ca2+-uptake (Ca2+-transport) assay in pig cardiac SR (pCSR) vesicles; assay type: biochemical; details: for Ca2+-Uptake C10: concentration yielding 10% effect; for CR (coupling ratio) VU/VA: maximum Ca2+-uptake rate / Ca2+-ATPase rate at [Ca2+]MAX, DMSO control = 0.66; for Decrease (inhibition) of Ca2+-uptake at [Ca2+]MAX: size of decrease; for Ca2+-Uptake ΔFMID / Ca2+-Uptake ΔFMAX: maximal compound effect vs DMSO control, pCSR; for Effect on Ca2+-uptake (category, Fig. 4A): activators, categories activate / uncouple / inhibit; for Increase in Ca2+-uptake: over [Ca2+]MAX and [Ca2+]MID
# T1 construct: Cardiac SR vesicles were isolated from fresh porcine left ventricular tissue using differential centrifugation; from tissue; host or cells: porcine left ventricular tissue (cardiac SR vesicles)
# Method: (§1) Cardiac SR vesicles were isolated from fresh porcine left ventricular tissue using differential centrifugation of the homogenized tissue as previously described. The SR vesicles were flash-frozen and stored at − 80 °C until needed. The SERCA concentration in the ER preparations purified from HEK cell homogenate is at least 10 times less than in purified porcine cardiac SR[20], but there was sufficient expression of the fluorescent SERCA2a biosensor in HEK cells to detect FRET with high precision by FLT[22],[23],[26].
# Ca^2+-transport assays were performed with similar porcine SR samples as in the Ca^2+-ATPase assays described above. The compound effect on the Ca^2+-transport activity of SERCA2a was determined using an oxalate-supported assay in which the change in fluorescence in a Ca^2+-sensitive dye, Fluor-4, was determined as previously described. A buffered solution containing 50 mM MOPS (pH 7.0), 100 mM KCl, 30 mg/mL sucrose, 1 mM EGTA, 10 mM potassium oxalate, 2 µM Fluo-4, 30 µg/mL porcine cardiac SR vesicles, CaCl2 calculated to reach the free [Ca^2+] (pCa 8.0, 6.2, and 5.4), and compound (0.048 to 50 μM) was dispensed into 384-well black walled, transparent bottomed plates (Greiner Bio-One) containing the tested small molecule and incubated at 22℃ for 20 min while covered and protected from light. To start the reaction, MgATP was added to a final concentration of 5 mM, and the decrease in 485-nm excited fluorescence of Fluo-4 was monitored at 520 nm for 15 min using a FLIPR Tetra (Molecular Devices, San Jose, CA).
# (§2) SERCA2a activity, F (rate of ATP hydrolysis or Ca^2+ uptake), was measured at varying pCa and varying compound concentration. F measured at [Ca^2+]MAX (saturating, pCa 5.4) or [Ca^2+]MID (subsaturating, midpoint, pCa 6.2) was corrected by subtracting the basal rate at pCa 8.0) and the % effect due to compound was reported. Concentration response curves (CRC) were fitted using the Hill function to determine VMAX (the activity at saturating [compound]), and EC50, the compound concentration at 50% effect.
# [2] = target: T2, human two-color SERCA2a (2CS) biosensor (Homo sapiens, UniProt P16615, INS508[…]); test: FRET concentration response curves (FLT-FRET) with the 2CS biosensor in live HEK cells; assay type: cell-based
# T2 construct: expressed in transfected cells
# Source text: A two-color intramolecular human SERCA2a (2CS) biosensor, based on human cardiac SERCA2a fused to green fluorescent protein (eGFP) and red fluorescent protein (tagRFP) was developed to detect structural changes that are related to the functional changes of SERCA[20],[22],[25]. Briefly, tagRFP was genetically fused to the N-terminus of SERCA (A-domain) and eGFP was inserted as an intrasequence tag before residue 509 in the nucleotide-binding domain (N-domain)[60],[61]. Donor-only and acceptor-only (1CS) biosensors were created in a similar manner as the 2CS biosensor but with the construct containing either only eGFP or only tag-RFP, respectively. […] A null-biosensor construct consisting of eGFP and tagRFP connected by a 32-residue unstructured flexible linker peptide (G32R) was created as described previously[23],[25]. All constructs were cloned into expression vectors containing the genes for antibiotic resistance to G418, puromycin, or blasticidin.
# Stable cell lines were generated using either human embryonic kidney (HEK) HEK293 (ATCC, Manassas, VA) or HEK293-6E (National Research Council, Canada) cells. Briefly, cells were transiently transfected with 2CS, 1CS, or G32R null-biosensor plasmids using Lipofecatime 3000 or 293fectin (Thermo Fisher Scientific). Flow cytometry was used to select and enrich for the population of cells expressing respective biosensors. Stable HEK293 cell lines were maintained in phenol red-free DMEM media (Gibco, Waltham, MA) supplemented with 2 mM GlutaMAX (Gibco, Waltham, MA), 10% fetal bovine serum (FBS) (Atlanta Biologicals, Lawrenceville, GA), 1 IU/mL penicillin/streptomycin (Gibco, Waltham, MA), and 250 μg/mL G418 (Fisher Scientific). Stable HEK293-6E cell lines were maintained in F17 media (Sigma Aldrich) supplemented with Kolliphor p188 (Sigma Aldrich, St. Louis, MO), […] GlutaMAX, and either 1 μg/mL puromycin (Invitrogen, Carlsbad, CA) or 2 μg/mL blasticidin (Goldbio) as a selection antibiotic. All cell lines were grown at 37 °C with 5% CO2.
# FRET CRC assay plates (0.78–100 μM compound range) with at least ten different compound concentrations were made by adding the appropriate volume of compound or DMSO into black 384 well plates (Greiner Bio-One) using a Mosquito HV (SPTLabTech, United Kingdom). Subsequent Ca^2+-ATPase activity and Ca^2+-transport CRC assay plates (0–50 μM compound range) with repurchased compounds were made in a similar manner using with the Echo 550 (Beckman Coulter) using either 384 well transparent plates (Greiner Bio-One) or black-walled plates with transparent bottoms (Greiner Bio-One), respectively.
# On each day of screening, cells were harvested, washed three times with PBS, and centrifuged at 300 g for 5 min. Cells were filtered using a 70 µm cell strainer and diluted to 1–2 × 10^6 cells/mL. Cell concentration and viability were assessed using the Cell countess (Invitrogen) and trypan blue assay. During assays, cells were constantly and gently stirred using a magnetic stir bar at room temperature, keeping the cells in suspension and evenly distributed to avoid clumping. HEK 293-cells expressing 2CS were dispensed at 5 μL or […] per well into assay plates (dispensed into 40 assay plates, each containing 1536 wells) pre-plated with compounds (from a DIVERset 50,000 compound library) using a Multdrop Combi liquid dispenser (Thermo Fisher Scientific, Pittsburg, PA) and sealed until needed. Because the kinetics of membrane permeability, diffusion, and/or binding of the compound to live cells may be compound-dependent, we tested two incubation times, 20 min and 120 min, for the FRET CRC. […] Plates containing eight-point concentration curves of three tool compounds (known SERCA effectors thapsigargin, BHQ, and CPA)[22] were used as positive controls for biosensor function and performance prior to running the full-scale FRET-HTS assay. […]
# [3] = target: T1, SERCA2a; test: NADH-linked Ca2+-ATPase activity assay in pig cardiac SR (pCSR) vesicles; assay type: biochemical; details: for Ca2+-ATPase ΔFMAX / Ca2+-ATPase ΔFMID: maximal compound effect vs DMSO control, pCSR; for Effect on Ca2+-ATPase activity (category, Fig. 4A): activators, categories activate / uncouple / inhibit
# Method: as §1
# Functional assays were performed using porcine cardiac SR (pCSR) vesicles. An enzyme-coupled, NADH-linked ATPase assay was used to measure SERCA ATPase activity in 384-well microplates. Each well contained 50 mM MOPS (pH 7.0), 100 mM KCl, 1 mM EGTA, 0.2 mM NADH, 1 mM phosphoenol pyruvate, 10 IU/mL of pyruvate kinase, 10 IU/mL of lactate dehydrogenase, 7 µM of the calcium ionophore A23187 (Sigma), and CaCl2 was added to set free [Ca^2+] to three different concentrations. Ca^2+-ATPase activity was measured at three [Ca^2+]: [Ca^2+]MAX (saturating, pCa 5.4), [Ca^2+]MID (subsaturating, midpoint, pCa 6.2), and [Ca^2+]BAS (basal non-activating, pCa 8.0). 10 μg/mL of SR vesicle, calcium, compound (0.048 to 50 μM), and assay mix were incubated for 20 min at room temperature before measurement of functional assays with each of the 18 hit compounds, because a shorter incubation time than the FRET live-cell assays achieved optimal responses. The assay was started upon the addition of MgATP, at a final concentration of 5 mM (total volume to 80 μL), and absorbance was read at 340 nm in a SpectraMax Plus^384 microplate spectrophotometer (Molecular Devices, Sunnyvale, CA).
# as §2
# [4] = [Ca2+]MAX (pCa5.4), concentration yielding 10% effect
# [5] = [Ca2+]MID (pCa6.2), concentration yielding 10% effect
# T1 sequence (P11607 1-997 isoform P11607-2): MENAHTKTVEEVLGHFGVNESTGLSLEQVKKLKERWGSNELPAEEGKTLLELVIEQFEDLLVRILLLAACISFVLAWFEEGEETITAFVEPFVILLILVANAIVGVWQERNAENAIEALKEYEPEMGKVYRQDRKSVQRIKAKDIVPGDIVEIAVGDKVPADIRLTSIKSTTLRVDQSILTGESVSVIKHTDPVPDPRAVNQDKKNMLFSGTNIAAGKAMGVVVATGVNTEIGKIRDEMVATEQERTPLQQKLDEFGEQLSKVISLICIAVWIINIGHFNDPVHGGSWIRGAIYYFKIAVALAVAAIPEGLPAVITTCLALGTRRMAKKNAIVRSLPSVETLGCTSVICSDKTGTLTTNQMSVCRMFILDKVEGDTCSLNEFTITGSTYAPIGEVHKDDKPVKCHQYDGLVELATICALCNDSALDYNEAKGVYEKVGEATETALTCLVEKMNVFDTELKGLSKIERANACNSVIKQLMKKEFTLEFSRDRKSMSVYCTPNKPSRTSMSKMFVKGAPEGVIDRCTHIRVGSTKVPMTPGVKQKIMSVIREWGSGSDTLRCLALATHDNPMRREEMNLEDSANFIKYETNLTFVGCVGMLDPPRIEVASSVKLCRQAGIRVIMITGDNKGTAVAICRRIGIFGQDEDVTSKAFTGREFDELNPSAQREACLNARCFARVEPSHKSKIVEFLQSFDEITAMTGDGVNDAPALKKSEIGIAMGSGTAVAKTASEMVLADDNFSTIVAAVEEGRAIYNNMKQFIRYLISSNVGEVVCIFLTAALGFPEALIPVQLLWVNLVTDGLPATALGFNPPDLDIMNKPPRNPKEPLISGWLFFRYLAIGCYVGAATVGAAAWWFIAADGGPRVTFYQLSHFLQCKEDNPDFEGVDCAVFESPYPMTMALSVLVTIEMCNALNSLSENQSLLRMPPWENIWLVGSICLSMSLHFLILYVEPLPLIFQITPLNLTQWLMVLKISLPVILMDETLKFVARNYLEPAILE
# T2 sequence (P16615 other isoform, or with tags, fused parts or gaps with the stated changes): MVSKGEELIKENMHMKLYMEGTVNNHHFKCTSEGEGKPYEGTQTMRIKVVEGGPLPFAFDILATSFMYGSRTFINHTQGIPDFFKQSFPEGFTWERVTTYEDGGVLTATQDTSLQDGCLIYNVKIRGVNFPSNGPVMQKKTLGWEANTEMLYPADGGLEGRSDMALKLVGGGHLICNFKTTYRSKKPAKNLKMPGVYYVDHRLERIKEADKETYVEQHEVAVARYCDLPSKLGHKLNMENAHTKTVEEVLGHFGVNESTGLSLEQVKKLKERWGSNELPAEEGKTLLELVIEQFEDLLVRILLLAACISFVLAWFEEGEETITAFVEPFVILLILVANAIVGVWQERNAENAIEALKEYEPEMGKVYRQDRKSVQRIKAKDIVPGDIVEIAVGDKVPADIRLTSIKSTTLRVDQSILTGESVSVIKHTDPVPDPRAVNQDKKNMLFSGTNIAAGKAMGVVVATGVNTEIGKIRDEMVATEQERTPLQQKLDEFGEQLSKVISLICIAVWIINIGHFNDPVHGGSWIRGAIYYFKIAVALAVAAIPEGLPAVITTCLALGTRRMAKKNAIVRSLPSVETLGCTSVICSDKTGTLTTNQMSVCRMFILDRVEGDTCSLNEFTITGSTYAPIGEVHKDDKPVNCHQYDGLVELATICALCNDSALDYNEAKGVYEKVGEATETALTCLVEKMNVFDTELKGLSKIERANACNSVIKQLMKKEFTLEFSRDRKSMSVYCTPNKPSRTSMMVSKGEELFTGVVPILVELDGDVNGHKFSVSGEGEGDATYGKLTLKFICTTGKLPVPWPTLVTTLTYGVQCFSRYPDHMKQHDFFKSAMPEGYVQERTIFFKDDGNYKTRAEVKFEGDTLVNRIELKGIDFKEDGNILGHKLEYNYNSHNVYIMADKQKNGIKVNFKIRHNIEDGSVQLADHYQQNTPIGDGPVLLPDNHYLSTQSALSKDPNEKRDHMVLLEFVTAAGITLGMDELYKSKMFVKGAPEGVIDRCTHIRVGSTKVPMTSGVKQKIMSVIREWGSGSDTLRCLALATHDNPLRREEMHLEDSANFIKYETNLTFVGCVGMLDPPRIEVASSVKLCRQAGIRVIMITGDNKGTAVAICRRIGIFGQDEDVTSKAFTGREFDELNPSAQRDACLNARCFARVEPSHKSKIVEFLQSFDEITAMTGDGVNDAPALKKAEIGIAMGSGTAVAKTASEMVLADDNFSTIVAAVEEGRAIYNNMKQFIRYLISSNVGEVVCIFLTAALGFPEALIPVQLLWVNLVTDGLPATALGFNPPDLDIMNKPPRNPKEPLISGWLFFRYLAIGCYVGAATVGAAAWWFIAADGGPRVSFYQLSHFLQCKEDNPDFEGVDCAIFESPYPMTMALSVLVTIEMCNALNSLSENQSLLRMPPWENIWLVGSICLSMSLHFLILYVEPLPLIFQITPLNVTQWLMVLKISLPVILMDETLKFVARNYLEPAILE
Ca2+-Uptake C10 ([1]; [Ca2+]MAX (pCa5.4)),Ca2+-Uptake C10 ([1]; [Ca2+]MID (pCa6.2)),CR (coupling ratio) VU/VA [1],"Ca2+-ATPase C10 [3, 4] [µM]","Ca2+-ATPase C10 [3, 5] [µM]",Ca2+-Uptake ΔFMID ([1]; [Ca2+]MID (pCa6.2)),"Effect on Ca2+-uptake (category, Fig. 4A) [1]",Ca2+-ATPase ΔFMAX ([3]; [Ca2+]MAX (pCa5.4)),Ca2+-ATPase ΔFMID ([3]; [Ca2+]MID (pCa6.2)),"Effect on Ca2+-ATPase activity (category, Fig. 4A) [3]",Ca2+-Uptake ΔFMAX ([1]; [Ca2+]MAX (pCa5.4)),EC50 ([3]; [Ca2+]MAX (pCa5.4)) [µM],EC50 ([3]; [Ca2+]MID (pCa6.2)) [µM],Compound,further results
50 µM,–,0.49,–,–,2% and 2 ± 1.0%,inhibit,8 ± 6.3%,8 ± 5.8%,activate,–,–,–,"Cc1cnc(C)c(N2CCN(C(=O)c3cc(COc4ccc5ncccc5c4)on3)CC2)n1 [Compound 1, 6-[(3-{[4-(3,6-dimethyl-2-pyrazinyl)-1-piperazinyl]carbonyl}-5-isoxazolyl)methoxy]quinoline]",Decrease (inhibition) of Ca2+-uptake at [Ca2+]MAX [1]: 10%; Increase in Ca2+-ATPase activity [3]: 10–25%
14 µM,21 µM and 20.6 µM,0.74,25,–,19% and 19 ± 9.8%,activate,14% and 14 ± 2%,7% and 7 ± 3%,activate,24% and 24 ± 10%,–,–,"CCn1nc(C)c(CN2CCCC(Nc3ccc(C(C)C)cc3)C2)c1C (stereo not drawn) [Compound 7, 1-[(1-ethyl-3,5-dimethyl-1H-pyrazol-4-yl)methyl]-N-(4-isopropylphenyl)-3-piperidinamine]",–
0.4 µM,0.8 µM,–,1.0,1.0,–,–,–,–,–,–,3.8 ± 0.3,4.2 ± 0.4,"OCC1(Cc2ccccc2F)CCCN(Cc2cc3c(cc2Cl)OCO3)C1 (stereo not drawn) [Compound 12, [1-[(6-chloro-1,3-benzodioxol-5-yl)methyl]-3-(2-fluorobenzyl)-3-piperidinyl]methanol]",EC50 ([1]; [Ca2+]MAX (pCa5.4)): 1.8 ± 0.1 µM; EC50 ([1]; [Ca2+]MID (pCa6.2)): 3.2 ± 0.1 µM

# The next lines start with the molecule.
Compound,Ca2+-Uptake C10 ([1]; [Ca2+]MAX (pCa5.4)),Ca2+-Uptake C10 ([1]; [Ca2+]MID (pCa6.2)),CR (coupling ratio) VU/VA [1],"Ca2+-ATPase C10 [3, 4] [µM]","Ca2+-ATPase C10 [3, 5] [µM]",Ca2+-Uptake ΔFMID ([1]; [Ca2+]MID (pCa6.2)),"Effect on Ca2+-uptake (category, Fig. 4A) [1]",Ca2+-ATPase ΔFMAX ([3]; [Ca2+]MAX (pCa5.4)),Ca2+-ATPase ΔFMID ([3]; [Ca2+]MID (pCa6.2)),"Effect on Ca2+-ATPase activity (category, Fig. 4A) [3]",Ca2+-Uptake ΔFMAX ([1]; [Ca2+]MAX (pCa5.4)),EC50 ([3]; [Ca2+]MAX (pCa5.4)) [µM],EC50 ([3]; [Ca2+]MID (pCa6.2)) [µM],further results
"CCc1cnc(N2CC[C@@H](c3ccc4ccccc4c3)[C@H](O)C2)nc1 (relative stereo) [Compound 16, (3S*,4S*)-1-(5-ethylpyrimidin-2-yl)-4-(2-naphthyl)piperidin-3-ol]",1.2 µM,4.2 µM,0.22,0.5,4.7,–,–,–,–,–,–,–,–,Inhibition of Ca2+-uptake (class) ([1]; strong / moderate / mild): M → S; also recorded: moderate-to-strong; EC50 [2]: 5.6 ± 0.3 µM
"c1ccc(-c2cc(CN3CCN(c4ncnc5ccccc45)CC3)on2)cc1 [Compound 4, 4-{4-[(3-phenyl-5-isoxazolyl)methyl]-1-piperazinyl}quinazoline]",–,47 µM,0.51,50.0,39.2,11% and 11 ± 2.7%,uncouple,10 ± 5.3%,11 ± 6.1%,activate,0.5% and 0.5 ± 3.2%,15 ± 7.2,–,Increase in Ca2+-uptake [1]: 0.5–10%
"O=C(c1ccc(-c2ccc(O)cc2)nc1)N1CCC(CCc2ccccc2)CC1 [Compound 6, 4-(5-{[4-(2-phenylethyl)piperidin-1-yl]carbonyl}pyridin-2-yl)phenol]",15 µM and 15.1 µM,4 µM and 4.2 µM,0.48,9.7,8.7,17% and 17 ± 1.4%,inhibit,25% and 25 ± 6.3%,30% and 30 ± 10%,activate,–,–,11.1 ± 1.5,EC50 ([1]; [Ca2+]MAX (pCa5.4)): 16 ± 1.2 µM; Decrease (inhibition) of Ca2+-uptake at [Ca2+]MAX [1]: 21%; EC50 ([1]; [Ca2+]MID (pCa6.2)): 2.9 ± 1 µM; Increase in Ca2+-ATPase activity [3]: 10–25%
"COc1ccc(C(=O)C2CCCN(Cc3nc(-c4ccc(F)cc4)cs3)C2)c(OC)c1 (stereo not drawn) [Compound 8, (2,4-dimethoxyphenyl)(1-{[4-(4-fluorophenyl)-1,3-thiazol-2-yl]methyl}-3-piperidinyl)methanone]",25 µM,–,0.4,4.3,7.8,7% and 7 ± 3.0%,uncouple,49% and 49 ± 4.8%,31% and 31 ± 14%,activate,10% and 10 ± 6.5%,8.3 ± 0.9,10 ± 1.9,Increase in Ca2+-uptake [1]: 0.5–10%; Ca2+-ATPase C10 ([3]; [Ca2+]MAX): 4.3 µM
